Experimental data reported in patent US20120020876A1, “HEDGEHOG PATHWAY INHIBITORS” (priority 2009, published 2012).
Entries after “also recorded” stand apart in the source; their conditions may differ.

How the values were obtained:
Assay type in all cases: in vivo, mouse
KPC tumor blood vessels = assay: Vessel patency: lectin perfusion with CD31 staining in KPC tumors; conditions: KPC mice treated 10 days; vs untreated or gemcitabine tumors
Procedure: To assess the functional vasculature, biotin-conjugated Lycopersicon esculentum lectin (B1175-1 mg, Vector Laboratories) was resuspended in 425 μL PBS and mixed with 75 μL of 1 mg/mL Streptavidin-AlexaFluor 633 (S21375, Molecular Probes) (in sterile PBS). Prior to use, the lectin-avidin mixture was centrifuged 14,000 k on a microfuge for 10 minutes to remove any particulate. Fifteen minutes prior to euthanasia, 100 μl (0.4 mg total) of the conjugated lectin was administered as a slow intravenous infusion over 5 minutes, and the hemodynamics monitored closely to ensure that it was tolerated. For doxorubicin experiments, five minutes prior to euthanasia mice were also infused with a 20 mg/kg doxorubicin solution (D-1515.10 mg, in sterile saline, Sigma) over one minute.
While under terminal anesthesia, mice were perfused with 4% paraformaldehyde in PBS, pH 7.4. Perfused tissues were harvested, fixed overnight in 4% paraformaldehyde in PBS, pH 7.4 and transferred to 70% ethanol. Tissues were embedded in paraffin, sectioned, rehydrated, and counterstained with DAPI. The lectin labeling experiments were reproduced independently in a second laboratory (SRH, KI).
Mice were infused with 30 ml of 4% PFA pH 7.4 using a Harvard Apparatus PhD 2000 syringe pump at a rate of […]. […] Doxorubicin fluorescence was excited with a 488 nm laser, and emission was detected in a range from 520-620 nm. […]

Gli1 = Gli1 expression in KPC tumors by quantitative real-time PCR; conditions: 40 mg/kg Compound A oral, treated for 4 days, vs control
Procedure: KPC mice harboring pancreatic tumors were treated with 40 mg/kg of Compound A by oral gavage, either singly, once daily for four days or at as part of a survival study. […] Six hours following the final dose, tissue samples were harvested, snap frozen in liquid nitrogen and stored at −80° C. Mice with abdominal ascites were excluded from analysis. Samples were analyzed by LC/MS, as described below.
RNA was isolated from tissues using the RNeasy kit (Qiagen). cDNA was synthesized from 1-2 ug of RNA using the AffinityScript QPCR cDNA Synthesis Kit (Stratagene). cDNA was analyzed by quantitative real-time PCR on a 7900HT Real-Time PCR system using relative quantification (ΔΔct) with the taqman gene expression assays (Applied Biosystems) (Table 7). Experiment was performed on 5 KPC tumors and 7 syngeneic tumors derived from K8484 or K8675 cells.

[1] = system: pancreatic tumors in KPC mice; assay: Survival study of tumor-bearing KPC mice; conditions: KPC mice enrolled with 5-10 mm tumors
Procedure: vehicles: 20 μL/g 0.85% NaCl+8 μL/g 5% HPBCD;
Compound A: 40 mg/kg Compound A+20 μL/g 0.85% NaCl;
For survival studies, mice were enrolled following the detection of 5-10 mm diameter tumor by ultrasound. Tumors were quantified by 3D ultrasound twice weekly until endpoint.

KPC tumors = assay: Proliferation of KPC tumors (phospho-histone H3 immunohistochemistry); conditions: 4 days or 8-12 days of treatment
Procedure: Tissues were fixed in 10% formalin solution for 24 hours and transferred to 70% ethanol. Tissues were paraffin embedded, sectioned and rehydrated. For CD31 IHC, sections were unmasked in 10 mM EDTA, pH 8.0 in a pressure cooker. For all other antibodies, sections were unmasked in 10 mM citric acid in a pressure cooker. Endogenous peroxidases were quenched in 3% H2O2/PBS for 20 minutes. Remaining steps were carried out with Vectastain ABC kits appropriate to the species of primary antibody (Vector Labs, Burlingame, Calif.) with the following modification: blocking serum was supplemented with Protein Blocking Agent (Immunotech/BeckmanCoulter, Fullerton, Calif.) diluted 1:50. Antigens were developed with DAB Peroxidase Substrate (Vector Labs). The following antibody dilutions were used: Phospho-Histone H3, 1:100 (#9701, Cell Signaling Technology); Cleaved Caspase 3, 1:100 (#9661, Cell Signaling Technology); CD31, 1:75 (SC-1506). Slides were counterstained with hematoxylin.

**Q.** For `CC1=C2C[C@H]3[C@@H](CC[C@@H]4C[C@H](NS(C)(=O)=O)CC[C@@]43C)[C@@H]2CC[C@@]2(C1)O[C@@H]1C[C@H](C)CN[C@H]1[C@H]2C.Cl` [Compound A], which “vessel patency (percent of CD31 positive vessels perfused with lectin)” value (KPC tumor blood vessels) is on record?
**A.** The value was “increased vessel patency”.

**Q.** And the Gli1 expression (Gli1)?
**A.** Its Gli1 expression is “significant decrease; also recorded: significantly lower”.

**Q.** And the “effect on survival of KPC mice” value [1]?
**A.** Its value is “Neither gemcitabine nor Compound A treatment had an effect on the survival”.

**Q.** And the “proliferation of KPC tumors” value (KPC tumors)?
**A.** Its value is “little appreciable effect; also recorded: unchanged”.
